Experiments:
Type in all cases: physicochemical
[1] = Base deblocking of substituted urethanes (U-PCA) by various amines; settings: dichloromethane, room temperature
Excerpt: 1. General Procedure for Studying the Base Deblocking of the Urethanes Fmoc-PCA, BTS-Fmoc-PCA, DT-Fmoc-PCA, and TMS-Fmoc-PCA: A mixture of urethane (0.05 mmol) in a solution prepared from an equal volume of base (2.5 mmol, 50 eq.) and dichloromethane was stirred at room temperature. The course of the reaction was monitored by TLC with an eluant consisting of Skelly B--ether (3:1).

[2] = Solubility of TMS-Fmoc and dichloro-Xmoc derivatives versus Fmoc analogs
Experimental: This latter property is particularly important when peptide synthesis is carried out in solution.

[3] = General statements on cleavage by piperidine or fluoride ion
[4] = Base deblocking and stability of 9-xanthenylmethyl and 9,10-dihydro-9-anthracenylmethyl derivatives; settings: room temperature; for time needed to complete the deblocking: DBU 100 eq.; for time needed to complete the deblocking / time for evidence for initiation of the deblocking: DMF; for time for evidence for initiation of the deblocking: piperidine 100 eq.
Experimental: 1. Deblocking of Xmoc-PCA in 1,5,9-Triazabicyclo[4,4,0]dec-5-ene Solution: To a solution of 7.90 mg (0.0216 mmol) of Xmoc-PCA in 0.6 mL of pyridine was added 0.15 g (1.078 mmol 50 eq.) of 1,5,9-triazabicyclo[4,4,0]dec-5-ene (TBD). The mixture was stirred at room temperature and monitored by TLC with an eluant consisting of Skelly B--EtOAc (3:1). Complete deblocking had occurred after 25 minutes.
2. Base Deblocking of 9-Xanthenylmethyl Phenylacetate: a. In Piperdine Solution: To a solution of 13.39 mg of 9-XM-phenylacetate in 1.6 mL of DMF was added 0.4 mL (100 eq.) of piperidine. The mixture was stirred at room temperature. […] In DBU Solution: To a solution of 6.36 mg of 9-XM-phenylacetate in 0.9 mL of DMF was added 0.3 mL of 1,8-diazabicyclo[5,4,0]-undec-7-ene (DBU) (100 eq.). The mixture was stirred at room temperature. […] In TBD Solution: To a solution of 7.91 mg of 9-XM-phenylacetate in 0.3 mL of pyridine was added 100 mg (30 eq.) of 1,5,9-triazabicyclo[4,4,0]dec-5-ene. The mixture was stirred at room temperature.
1. General Procedure for Studying the Stabilities of DHAmoc-PCA, Xmoc-PCA, and DC-Xmoc-PCA in Piperidine Solution To a solution of urethane (0.0294 mmol) in 1.2 mL of DMF was added 0.3 mL (2.94 mmol, 100 eq.) of piperidine. The mixture was stirred at room temperature and monitored by TLC with an eluant consisting of Skelly B--EtOAc (3:1). Evidence for initiation of the deblocking required 2 minutes for DC-Xmoc-PCA, 3.5 hours for Xmoc-PCA, and 7 hours for DHAmoc-PCA.
2. General Procedure for Studying the Deblocking of Xmoc-PCA and DHAmoc-PCA in DBU Solution: To a solution of urethane (0.0324 mmol) in 0.5 mL of DMF was added 0.5 mL (3.24 mmol, 100 eq.) of 1,8-diazabicyclo[5,4,0]undec-7-ene. The mixture was stirred at room temperature and monitored by TLC with the eluant consisting of Skelly B--EtOAc (3:1). The time needed to complete the deblocking was 3.5 hours for Xmoc-PCA, and 6 hours for DHAmoc-PCA.

[5] = Deblocking of R-Fmoc-aniline by fluoride ion; settings: tetra-n-butylammonium chloride 3.0 eq., KF dihydrate 4.1 eq., acetonitrile, room temperature
Experimental: 3. General Procedure for Studying the Deblocking of Urethanes R-Fmoc-aniline (R=TMS, DMPS, DPMS, TIPS, DT-TMS) by Reaction with Fluoride Ion: To a solution of urethane (0.0513 mmol) in 0.7 mL of acetonitrile was added 45 mg (0.154 mmol, 3.0 eq.) of tetra-n-butyl-ammonium chloride and 20 mg (0.213 mmol, 4.1 eq.) of potassium fluoride dihydrate. The mixture was stirred at room temperature, the reaction being monitored by TLC with an eluant consisting of Skelly B--CH2 Cl2 (1:1).

[6] = Base deblocking of R-Fmoc-aniline by various amines; settings: for Time for Complete Deblocking / Time for Complete Scavenging of Dibenzofulvene: room temperature
Experimental: 2. General Procedure for Studying the Base Deblocking of the Urethanes R-Fmoc-aniline (R=TMS, DMPS, DPMS, DT-TMS, TIPS): A solution of urethane (0.05 mmol) in a sample of redistilled base (5 mmol, 100 eq.) was allowed to stand at room temperature. The reaction was monitored periodically by TLC with an eluant consisting of Skelly B--CH2 Cl2 (1:1). No reaction occurred according to the TLC test for urethanes having R=TIPS in the case of any of the bases tested after 24 hours.

[7] = Deblocking of R-Fmoc-aniline by trifluoroacetic acid; settings: room temperature
Excerpt: 1. General Procedure for Studying the stability of R-Fmoc-analine (R=TMS, DMPS, DPMS, DT-TMS, TIPS) in Trifluoroacetic Acid: To a solution of urethane (0.026 mmol) in […].) of trifluoroacetic acid. The mixture was stirred at room temperature and the course of the reaction was monitored by TLC with an eluant consisting of Skelly B--dichloromethane (1:1) to note the time needed for complete deblocking of the urethanes.

[8] = Base deblocking of FM-Fmoc-PCA; settings: room temperature
Experimental: A. Base Deblocking of FM-Fmoc-PCA: 1. In Piperidine Solution: To a solution of 24.96 mg of FM-Fmoc-PCA in 0.5 mL of DMF was added 0.5 mL (100 eq.) of piperidine. The mixture was stirred at room temperature. […] 2. In DBN Solution: To a solution of 12.81 mg of FM-Fmoc-PCA in 0.15 mL of DMF was added 0.15 mL (50 eq.) of 1,5-diazabicyclo[4,3,0]nonene-7 (DBN). The mixture was stirred at room temperature. […] 3. In DBU Solution: To a solution of 10.58 mg of FM-Fmoc-PCA in 0.15 mL of DMF was added 0.15 mL (50 eq.) of 1,8-diazabicyclo[5,4,0]undec-7-ene (DBU). The mixture was stirred at room temperature. […] 4. In TBD: To a solution of 18.95 mg of FM-Fmoc-PCA in 0.2 mL of DMF and 0.2 mL of pyridine was added 100 mg (20 eq.) of 1,5,9-triazabicyclo[4,4,0]dec-5-ene (TBD). The mixture was stirred at room temperature.

[9] = morpholine 50 eq., significant aminodibenzofulvene type adduct formed
[10] = piperidine 50 eq., significant aminodibenzofulvene type adduct formed

O=C(Nc1ccc(Cl)cc1)OCC1c2ccccc2-c2ccccc21 [Fmoc-PCA, 9-fluorenylmethyl p-chlorocarbanilate, reference compound]
Time for Complete Deblocking ([1]; ethanolamine 50 eq.): 45 min | Time for Complete Scavenging of Dibenzofulvene Analogs ([1]; morpholine 50 eq.): 2.5 hr | Time for Complete Deblocking [1, 9]: 75 min | Time for Complete Scavenging of Dibenzofulvene Analogs ([1]; piperidine 50 eq.): 68 min | Time for Complete Deblocking [1, 10]: < 3 min | Time for Complete Deblocking ([1]; t-butylamine 50 eq.): 300 min

O=C(Nc1ccc(Cl)cc1)OCC1c2cc(Cl)ccc2Oc2ccc(Cl)cc21 [2,7-dichloro analog of Xmoc]
solubility compared with Fmoc derivatives [2]: greater solubility than Fmoc derivatives | deblocking by / stability to piperidine [3]: deblocked by piperidine as easily as the Fmoc group

C[Si](C)(C)C1(COC(=O)Nc2ccc(Cl)cc2)c2ccccc2-c2ccccc21 [Example 9-TMS-Fmoc]
solubility compared with ordinary Fmoc analogs ([2]; in non-polar solvents): enormously more soluble in non-polar solvents than ordinary Fmoc analogs | deblocking by / stability to piperidine [3]: deblocked by piperidine, although somewhat more slowly than the Fmoc group itself

O=C(Nc1ccc(Cl)cc1)OCC1c2ccccc2Oc2ccccc21 [Xmoc-PCA, 9-Xanthenylmethyl p-Chlorocarbanilate]
time needed to complete the deblocking [4]: 3.5 h | Time for Complete Deblocking ([4]; TBD 50 eq., pyridine): 25 min | time for evidence for initiation of the deblocking [4]: 3.5 h

CC(C)(C)c1ccc2c(c1)C(COC(=O)Nc1ccccc1)([Si](C)(C)C)c1cc(C(C)(C)C)ccc1-2 [DT-TMS, 2,7-Di-tert-butyl-9-trimethylsilyl-9-fluorenylmethyl Carbanilate]
Time for Complete Deblocking by Fluoride Ion [5]: 10 min | Time for Complete Deblocking ([6]; morpholine 100 eq.): 16 h | Time for Complete Scavenging of Dibenzofulvene ([6]; morpholine 100 eq.): 1020 min | Time for Complete Deblocking ([6]; piperidine 100 eq.): 13 h | Time for Complete Scavenging of Dibenzofulvene ([6]; piperidine 100 eq.): 1080 min | Time for Complete Deblocking ([6]; t-butylamine 100 eq.): > 24 h | Time for Complete Deblocking by Trifluoroacetic Acid [7]: 50 min

O=C(Nc1ccc(Cl)cc1)OCC1c2ccccc2Cc2ccccc21 [DHAmoc-PCA, 3,10-Dihydro-9-anthracenylmethyl p-Chlorocarbanilate]
time needed to complete the deblocking [4]: 6 h | time for evidence for initiation of the deblocking [4]: 7 h

CC(C)(C)c1ccc2c(c1)C(COC(=O)Nc1ccc(Cl)cc1)c1cc(C(C)(C)C)ccc1-2 [DT-Fmoc-PCA, 2,7-Di-tert-butyl-9-Fluorenylmethyl p-Chlorocarbanilate]
Time for Complete Deblocking ([1]; ethanolamine 50 eq.): 240 min | Time for Complete Scavenging of Dibenzofulvene Analogs ([1]; morpholine 50 eq.): 13 hr | Time for Complete Deblocking [1, 9]: 600 min | Time for Complete Scavenging of Dibenzofulvene Analogs ([1]; piperidine 50 eq.): 84 min | Time for Complete Deblocking [1, 10]: 12 min | Time for Complete Deblocking ([1]; t-butylamine 50 eq.): 600 min

CC(C)[Si](C(C)C)(C(C)C)C1(COC(=O)Nc2ccccc2)c2ccccc2-c2ccccc21 [derivative F]
cleavage by fluoride ion ([3]; inorganic base, fluoride ion): cleaved by the inorganic base, fluoride ion | deblocking by / stability to piperidine [3]: stable to piperidine

CC(C)[Si](C(C)C)(C(C)C)C1(COC(=O)Nc2ccccc2)c2ccccc2-c2ccccc21 [TIPS, 9-Triisopropylsilyl-9-fluorenylmethyl Carbanilate]
Time for Complete Deblocking by Fluoride Ion [5]: 1080 min | reaction with amine bases (TLC) ([6]; any of the bases tested, 100 eq., 24 hours): no reaction was detected | Time for Complete Deblocking by Trifluoroacetic Acid [7]: 34 min

C[Si](C)(c1ccccc1)C1(COC(=O)Nc2ccccc2)c2ccccc2-c2ccccc21 [DMPS, 9-Dimethyl(phenyl)silyl-9-fluorenylmethyl Carbanilate]
Time for Complete Deblocking by Fluoride Ion [5]: < 2 min | Time for Complete Deblocking ([6]; morpholine 100 eq.): 0.783 h | Time for Complete Scavenging of Dibenzofulvene ([6]; morpholine 100 eq.): 60 min | Time for Complete Deblocking ([6]; piperidine 100 eq.): 0.667 h | Time for Complete Scavenging of Dibenzofulvene ([6]; piperidine 100 eq.): 220 min | Time for Complete Deblocking ([6]; t-butylamine 100 eq.): 3.5 h | Time for Complete Deblocking by Trifluoroacetic Acid [7]: 480 min

O=C(Nc1ccc(Cl)cc1)OCC1c2ccccc2Oc2ccccc21 [Xmoc]
deblocking by / stability to piperidine [3]: stable to piperidine

O=C(Nc1ccc(Cl)cc1)OCC1c2cc(Cl)ccc2Oc2ccc(Cl)cc21 [DC-Xmoc-PCA, 2,7-Dichloro-9-xanthenylmethyl p-Chlorocarbanilate]
time for evidence for initiation of the deblocking [4]: 0.033 h

C[Si](c1ccccc1)(c1ccccc1)C1(COC(=O)Nc2ccccc2)c2ccccc2-c2ccccc21 [DPMS, 9-Diphenyl(methyl)silyl-9-fluoroenylmethyl Carbanilate]
Time for Complete Deblocking by Fluoride Ion [5]: < 2 min | Time for Complete Deblocking ([6]; morpholine 100 eq.): 0.583 h | Time for Complete Scavenging of Dibenzofulvene ([6]; morpholine 100 eq.): 51 min | Time for Complete Deblocking ([6]; piperidine 100 eq.): 0.467 h | Time for Complete Scavenging of Dibenzofulvene ([6]; piperidine 100 eq.): 150 min | Time for Complete Deblocking ([6]; t-butylamine 100 eq.): 1.5 h | Time for Complete Deblocking by Trifluoroacetic Acid [7]: 1080 min

O=C(Nc1ccc(Cl)cc1)OCC1(CC2c3ccccc3-c3ccccc32)c2ccccc2-c2ccccc21 [FM-Fmoc-PCA, 9-(9'-Fluorenylmethyl)-9-fluorenylmethyl p-Chlorocarbanilate]
time at which deblocking had begun ([8]; DBN 50 eq., DMF): ≤ 10 min | Time for Complete Deblocking ([8]; DBN 50 eq., DMF, still not complete): > 24 h | Time for Complete Deblocking ([8]; DBU 50 eq., DMF): 12 h | time at which deblocking had begun ([8]; DBU 50 eq., DMF): ≤ 10 min | start of deblocking ([8]; TBD 20 eq., DMF and pyridine): immediately | time for complete deblocking-scavenging reaction ([8]; TBD 20 eq., DMF and pyridine): 1 h | time at which first deblocking was detected ([8]; piperidine 100 eq., DMF): 12 h

— US5101059A, “Amino acid protecting groups” (Research Corporation Technologies, Inc., priority 1989, dated 1992)
